In ChEMBL document CHEMBL1156829 (Proc Natl Acad Sci U S A, 2008) one finds EC50 and CC50 data, which are given here for 21 compounds.

Molecules are shown by their SMILES. Bounds are passed on as bounds.

Data set [1] has as its system Plasmodium falciparum. Description: NOVARTIS: Inhibition of Plasmodium falciparum 3D7 (drug-susceptible) proliferation in erythrocyte-based infection assay. The following applies: Plasmodium falciparum, 3D7. It counts as functional, organism-based.
Data set [2] can be described thus: NOVARTIS: Cytotoxicity against human hepatocellular carcinoma cell line (Huh7). It is filed as toxicity, cell-based, Huh-7. The following applies: Huh7 cells (hepatocellular carcinoma cell line).
The subject of data set [3] is Plasmodium falciparum. Description: NOVARTIS: Inhibition of Plasmodium falciparum W2 (drug-resistant) proliferation in erythrocyte-based infection assay. It is filed as functional, organism-based. The following applies: Plasmodium falciparum, W2; read-out: EC50.

In the case of `CCOC(=O)c1ccc(N(C(=O)Cc2c[nH]c3ccccc23)C(C(=O)NC2CCCCC2)c2cccc(OC)c2OC)cc1` (stereo not drawn), the EC50 (commonly the concentration at which the effect is half-maximal) with Plasmodium falciparum [1] is 54.2 nM; in the data set on Plasmodium falciparum [3] it was 104 nM. In addition, the CC50 (usually the concentration that lowers cell viability or growth by half) in data set [2] is over 100000 nM.
As to `COc1cccc(NC(=O)Cn2c(C)c(C#N)c3ccccc32)c1`, the EC50 came to 79.6 nM with Plasmodium falciparum [1] and 104 nM in the data set on Plasmodium falciparum [3]. For the same compound, the cytotoxic concentration (CC50) in data set [2] was over 100000 nM.
For `CC(=O)Nc1cc(C(=O)Nc2ccc(C3=NCCN3)cc2)ccc1C(=O)Nc1ccc(C2=NCCN2)cc1` the same measures were 323 nM, 103 nM and over 100000 nM.
For `COc1ccccc1N1CCN(Cc2cc(C(C)C)c(C)cc2O)CC1` the same measures were 623 nM, 85 nM and 77400 nM.
With `COc1ccc(NC(=O)C2c3ccccc3C(=O)N(C3CCCC3)C2c2cccs2)cc1Cl` (stereo not drawn), the EC50 with Plasmodium falciparum [1] turned out to be 128 nM; in the data set on Plasmodium falciparum [3] it was 107 nM. The same compound yielded a cytotoxic concentration (CC50) in data set [2] of over 100000 nM.
As to `COC(=O)C1=C(C)NC2=C(C(=O)CC(c3ccccc3Cl)C2)C1c1ccc([N+](=O)[O-])cc1` (stereo not drawn), the half-maximal effective concentration (EC50) was determined as 114 nM in the data set on Plasmodium falciparum [1] and 105 nM in the data set on Plasmodium falciparum [3]. The compound further had a CC50 in data set [2] of over 100000 nM.
For `CCCOC(=O)C1=C(C)NC2=C(C(=O)CC(c3ccccc3)C2)C1c1ccc(Cl)cc1Cl` (stereo not drawn) the same measures were 484 nM, 109 nM and over 100000 nM.
Take `CCCC(=O)NC(C(=O)N1CCN(C(c2ccccc2)c2ccccc2)CC1)C(C)C` (stereo not drawn): the EC50 in the data set on Plasmodium falciparum [1] stood at 387 nM; with Plasmodium falciparum [3], 10.9 nM. Moreover, the 50% cytotoxic concentration (CC50) in data set [2] is over 10000 nM.
As for `COc1cc(C2CC(=O)NC3=C2C(=O)CC(c2ccccc2Cl)C3)ccc1O` (stereo not drawn), the EC50 was 815 nM with Plasmodium falciparum [1] and 109 nM with Plasmodium falciparum [3]. Further, in data set [2], the CC50 was over 100000 nM.
For `Cc1ccc(CN2CCc3nc(N4CCCCC4)sc3C2)s1` the same measures were 14.1 nM, 10.5 nM and over 10000 nM.
Regarding `CC(=O)N(C1=C(N2CCCCC2)C(=O)c2ccccc2C1=O)c1ccc(F)cc1`, the EC50 with Plasmodium falciparum [1] came out at 155 nM; in the data set with Plasmodium falciparum [3] it was 34.5 nM. Further, half-maximal cytotoxicity in data set [2] (CC50) was put at 33300 nM.
For `O=[N+]([O-])c1cc(C(F)(F)F)ccc1N1CCCN(C(=S)Nc2ccccc2)CC1` the same measures were 87.8 nM, 102 nM and over 100000 nM.
For `CCOC(=O)C1=C(C)NC2=C(C(=O)CC(c3ccc(OC)c(OC)c3)C2)C1c1ccc(Cl)c(Cl)c1` (stereo not drawn) the same measures were 229 nM, 105 nM and over 100000 nM.
For `CN(CCCNc1ccnc2cc(Cl)ccc12)C(=O)c1cc(C(F)(F)F)cc(C(F)(F)F)c1` the same measures were 86.8 nM, under 10.4 nM and over 10000 nM.
Take `CCN1C(=O)N(CCC(C)C)C2(CCN(Cc3cc(Cl)ccc3O)CC2)C1=O`: the results for the concentration for a half-maximal effect (EC50) with Plasmodium falciparum [1] and in the data set with Plasmodium falciparum [3] were 348 nM and 102 nM, respectively. The compound also yielded a CC50 in data set [2] of over 100000 nM.
For `CC(C)(C)CC(C)(C)Nc1c(-c2ccccc2OC(=O)c2ccc(Cl)cc2Cl)nc2ccccn12` the same measures were 279 nM, 10.3 nM and over 10000 nM.
For `CCOC(=O)C1=C(C)NC2=C(C(=O)C(C(=O)OCC)C(c3ccccc3OC)C2)C1c1ccc([N+](=O)[O-])cc1` (stereo not drawn) the same measures were 114 nM, 102 nM and over 100000 nM.
For `O=C(Cc1cccs1)N1CCOc2c(cc(-c3csc4ccccc34)cc2OCCc2ccccn2)C1` the same measures were 179 nM, 106 nM and over 100000 nM.
For the compound `O=C1C2=C(Nc3ccccc3SC2c2ccc(OCc3ccccc3)cc2)c2ccccc21` (stereo not drawn), the 50% effective concentration (EC50) was 479 nM in the data set on Plasmodium falciparum [1] and 103 nM in the data set with Plasmodium falciparum [3]. This compound gave a CC50 in data set [2] of over 100000 nM.
In the case of `CCOc1ccccc1C1C(C#N)=C(SCC(=O)Nc2ccc(Cl)cc2)NC(C)=C1C(=O)Nc1ccccc1` (stereo not drawn), the EC50 worked out at 352 nM with Plasmodium falciparum [1] and 107 nM in the data set with Plasmodium falciparum [3]. The compound also returned a half-maximal cytotoxic concentration (CC50) in data set [2] of over 100000 nM.
On to `N#Cc1ccc(NC(=O)CCCC(=O)O)cc1`, for which the results for the EC50 in the data set with Plasmodium falciparum [1] and in the data set on Plasmodium falciparum [3] were 2080 nM and under 10.6 nM, respectively. Further, the CC50 in data set [2] is over 10000 nM.
